Reference: patent publication US20250101436A1, “APTAMERS AND SMALL MOLECULE LIGANDS” (MeiraGTx UK II Limited, priority 2021, published 2025)

Test system: luciferase gene expression in HEK 293 cells in response to Comp. 004
Experiment: Screen of riboswitch constructs with 12C6-1 variant aptamers (libraries N1-N5) against Comp. 004, luciferase in HEK 293 cells
Assay type: cell-based, human
Description: Cloning of riboswitch constructs containing 12C6-1 variant aptamer sequences: 12C6-1 aptamer sequence was used as template, and nucleobases were randomized at certain position in the sequence. Aptamers incorporating random mutagenesis were synthesized by Integrated DNA Technologies, Inc. Golden Gate cloning strategy (New England Biolabs, NEB) was used to clone the synthesized aptamer sequences into intron-exon-intron cassette to replace the 12C6-1 aptamer in the Luci-12C6-1 riboswitch construct, generating riboswitch constructs containing variant aptamer sequences.
To further improve the riboswitch activity in responding to Comp. 004 and related compounds, the aptamer sequence 12C6-1 was subject to mutagenesis to generate aptamer variants, and the riboswitches containing the variant aptamers were screened against Comp. 004 for the ones that have improved dynamic range of induced gene expression (the fold induction), in comparison with the fold induction by parental riboswitch construct Luci-12C6-1. […] These loop or junction region alone or together with stem region in proximity were chosen for random mutagenesis to generate riboswitches with re-engineered aptamer sequences with improved activity.
Five aptamer libraries N1, N2, N3, N4 and N5 were generated by randomizing nucleotides at positions in J2-4, J2-3/J3-3a/J3a-2/P3, L3a, J4-5/J5-4/P4 and L5 regions of the parent 12C6-1 sequence, respectively (see FIGS. 3a and 3b). Single bacterial colonies were picked and plasmids containing variant riboswitch constructs were screened in HEK 293 cells for improved gene regulation activity in response to 25 µM Comp. 004 as compared to parent riboswitch construct Luci-12C6-1.

[1] = library N5 variant aptamers (L5, X16-X21 randomized) of 12C6-1 in riboswitch constructs, in response to Comp. 004 treatment, HEK 293 cells
[2] = library N2 variant aptamers (J2-3, P3-J3-3a, J3a-2 randomized) of 12C6-1 in riboswitch constructs, in response to Comp. 004, HEK 293 cells
[3] = library N1 (J2-4), HEK 293, 25 M [sic] Comp. 004

Substance	Fold (induction of luciferase gene expression) [1]	also measured
N5_7E1 (DNA CTGGGGAGTCCT; chemistry not given here)	1733.0 fold	
N5_13H3 (CTGGGGAGTCCT; chemistry not given here)	1288.5 fold	
N5_7D6 (DNA CTGGGGAGTCCT; chemistry not given here)	1210.5 fold	
N2_2F11 (DNA CTGGGGAGTCCTTCATGC; chemistry not given here)		Fold (induction of luciferase gene expression) [2]: 1.1 fold
N5_1H7 (CTGGGGAGTCCT; chemistry not given here)	1032.1 fold	
N5_7F10 (DNA CTGGGGAGTCCT; chemistry not given here)	572.7 fold	
N1_2D5 (CTGGGGAGTCCTTCATGCGGGGC; chemistry not given here)		Fold (induction of luciferase gene expression) [3]: 35.71 fold
N1_2F6 (CTGGGGAGTCCTTCATGCGGGGC; chemistry not given here)		Fold (induction of luciferase gene expression) [3]: 185.92 fold
N5_3D3 (CTGGGGAGTCCT; chemistry not given here)	1222.7 fold	
N5_1D11 (CTGGGGAGTCCT; chemistry not given here)	4.8 fold	
N5_7H3 (DNA CTGGGGAGTCCT; chemistry not given here)	360.5 fold	
N5_9E12 (DNA CTGGGGAGTCCT; chemistry not given here)	1458.4 fold	
N5_7F1 (DNA CTGGGGAGTCCT; chemistry not given here)	1744.2 fold	
N5_9E6 (DNA CTGGGGAGTCCT; chemistry not given here)	1020.7 fold	
N5_7G9 (DNA CTGGGGAGTCCT; chemistry not given here)	841.7 fold	
N1_2G6 (CTGGGGAGTCCTTCATGCGGGGC; chemistry not given here)		Fold (induction of luciferase gene expression) [3]: 11.00 fold
N5_7D1 (DNA CTGGGGAGTCCT; chemistry not given here)	909.3 fold	
N5_2D10 (CTGGGGAGTCCT; chemistry not given here)	884.5 fold	
N5_7G12 (DNA CTGGGGAGTCCT; chemistry not given here)	894.6 fold	
N5_7E9 (DNA CTGGGGAGTCCT; chemistry not given here)	955.3 fold	
N2_2C4 (CTGGGGAGTCCTTCATGC; chemistry not given here)		Fold (induction of luciferase gene expression) [2]: 2.0 fold
N5_7F11 (DNA CTGGGGAGTCCT; chemistry not given here)	339.7 fold	
N1_2E2 (CTGGGGAGTCCTTCATGCGGGGC; chemistry not given here)		Fold (induction of luciferase gene expression) [3]: 7.86 fold

Substance	Fold (induction of luciferase gene expression) [1]	also measured
N5_7E5 (DNA CTGGGGAGTCCT; chemistry not given here)	867.4 fold	
N2_2D6 (DNA CTGGGGAGTCCTTCATGC; chemistry not given here)		Fold (induction of luciferase gene expression) [2]: 1.1 fold
N5_7G6 (DNA CTGGGGAGTCCT; chemistry not given here)	902.8 fold	
N5_6G6 (CTGGGGAGTCCT; chemistry not given here)	1004.4 fold	
N5_1A6 (CTGGGGAGTCCT; chemistry not given here)	638.8 fold	
N5_3A2 (CTGGGGAGTCCT; chemistry not given here)	718.0 fold	
N1_2D6 (CTGGGGAGTCCTTCATGCGGGGC; chemistry not given here)		Fold (induction of luciferase gene expression) [3]: 13.57 fold
N2_2B9 (CTGGGGAGTCCTTCATGC; chemistry not given here)		Fold (induction of luciferase gene expression) [2]: 1.1 fold
N1_2E9 (CTGGGGAGTCCTTCATGCGGGGC; chemistry not given here)		Fold (induction of luciferase gene expression) [3]: 11.27 fold
N5_7D7 (DNA CTGGGGAGTCCT; chemistry not given here)	105.5 fold	
N1_2E8 (CTGGGGAGTCCTTCATGCGGGGC; chemistry not given here)		Fold (induction of luciferase gene expression) [3]: 5.81 fold
N2_2D7 (DNA CTGGGGAGTCCTTCATGC; chemistry not given here)		Fold (induction of luciferase gene expression) [2]: 1.0 fold
N5_7F3 (DNA CTGGGGAGTCCT; chemistry not given here)	1139.0 fold	
N1_2E7 (CTGGGGAGTCCTTCATGCGGGGC; chemistry not given here)		Fold (induction of luciferase gene expression) [3]: 19.91 fold
N5_7A11 (CTGGGGAGTCCT; chemistry not given here)	941.2 fold	
N2_2H10 (CTGGGGAGTCCTTCATGC; chemistry not given here)		Fold (induction of luciferase gene expression) [2]: 1.0 fold
N2_2A10 (CTGGGGAGTCCTTCATGC; chemistry not given here)		Fold (induction of luciferase gene expression) [2]: 1.1 fold
N2_2D1 (CTGGGGAGTCCTTCATGC; chemistry not given here)		Fold (induction of luciferase gene expression) [2]: 1.1 fold
N1_2D1 (CTGGGGAGTCCTTCATGCGGGGC; chemistry not given here)		Fold (induction of luciferase gene expression) [3]: 4.38 fold
N5_7B7 (CTGGGGAGTCCT; chemistry not given here)	1046.3 fold	
N5_7E7 (DNA CTGGGGAGTCCT; chemistry not given here)	870.2 fold	
N2_2E6 (DNA CTGGGGAGTCCTTCATGC; chemistry not given here)		Fold (induction of luciferase gene expression) [2]: 0.9 fold
N1_2F12 (CTGGGGAGTCCTTCATGCGGGGC; chemistry not given here)		Fold (induction of luciferase gene expression) [3]: 1.83 fold

Substance	Fold (induction of luciferase gene expression) [1]	also measured
N2_2E5 (DNA CTGGGGAGTCCTTCATGC; chemistry not given here)		Fold (induction of luciferase gene expression) [2]: 1.2 fold
N5_14H11 (CTGGGGAGTCCT; chemistry not given here)	918.4 fold	
N5_5C4 (CTGGGGAGTCCT; chemistry not given here)	1235.2 fold	
N5_2D8 (CTGGGGAGTCCT; chemistry not given here)	1047.3 fold	
N1_2G7 (CTGGGGAGTCCTTCATGCGGGGC; chemistry not given here)		Fold (induction of luciferase gene expression) [3]: 2.06 fold
N5_11G11 (CTGGGGAGTCCT; chemistry not given here)	1186.4 fold	
N2_2A8 (CTGGGGAGTCCTTCATGC; chemistry not given here)		Fold (induction of luciferase gene expression) [2]: 1.0 fold
N5_1B2 (CTGGGGAGTCCT; chemistry not given here)	747.7 fold	
N2_2G2 (DNA CTGGGGAGTCCTTCATGC; chemistry not given here)		Fold (induction of luciferase gene expression) [2]: 1.3 fold
N2_2E12 (DNA CTGGGGAGTCCTTCATGC; chemistry not given here)		Fold (induction of luciferase gene expression) [2]: 1.3 fold
N1_2D11 (CTGGGGAGTCCTTCATGCGGGGC; chemistry not given here)		Fold (induction of luciferase gene expression) [3]: 1.96 fold
N2_2B12 (CTGGGGAGTCCTTCATGC; chemistry not given here)		Fold (induction of luciferase gene expression) [2]: 1.0 fold
N5_1F12 (CTGGGGAGTCCT; chemistry not given here)	1057.8 fold	
N2_2G11 (DNA CTGGGGAGTCCTTCATGC; chemistry not given here)		Fold (induction of luciferase gene expression) [2]: 0.9 fold
N1_2G10 (CTGGGGAGTCCTTCATGCGGGGC; chemistry not given here)		Fold (induction of luciferase gene expression) [3]: 4.40 fold
N5_8G9 (DNA CTGGGGAGTCCT; chemistry not given here)	1066.5 fold	
N5_8F3 (DNA CTGGGGAGTCCT; chemistry not given here)	862.0 fold	
N5_7F9 (DNA CTGGGGAGTCCT; chemistry not given here)	642.4 fold	
N2_2F4 (DNA CTGGGGAGTCCTTCATGC; chemistry not given here)		Fold (induction of luciferase gene expression) [2]: 1.2 fold
N2_2F12 (DNA CTGGGGAGTCCTTCATGC; chemistry not given here)		Fold (induction of luciferase gene expression) [2]: 1.0 fold
N2_2H9 (CTGGGGAGTCCTTCATGC; chemistry not given here)		Fold (induction of luciferase gene expression) [2]: 0.9 fold
N5_13E8 (CTGGGGAGTCCT; chemistry not given here)	2096.6 fold	
N5_7C3 (DNA CTGGGGAGTCCT; chemistry not given here)	1258.4 fold	
